What is called IC50 is the concentration that gives 50% inhibition.

Bounds are passed on as bounds.

What all share (details): average where tested multiple times
Assay [1] addresses T1, BCAT2 (Homo sapiens, UniProt O15382).
T1 sequence (O15382 28-392): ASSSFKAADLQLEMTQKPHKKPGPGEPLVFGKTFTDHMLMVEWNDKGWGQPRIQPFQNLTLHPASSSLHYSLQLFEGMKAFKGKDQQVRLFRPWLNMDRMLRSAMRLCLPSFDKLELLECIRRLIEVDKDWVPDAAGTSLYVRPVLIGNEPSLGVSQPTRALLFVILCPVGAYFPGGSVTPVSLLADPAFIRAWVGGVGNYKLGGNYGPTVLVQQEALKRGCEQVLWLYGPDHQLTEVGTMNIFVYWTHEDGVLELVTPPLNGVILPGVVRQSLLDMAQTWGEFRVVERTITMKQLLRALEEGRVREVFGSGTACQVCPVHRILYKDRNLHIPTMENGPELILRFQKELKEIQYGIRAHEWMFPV
Description: BCAT2 in vitro enzyme inhibition assay (resazurin/diaphorase-coupled fluorescence). It is filed as biochemical. The method in brief: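 Coupled fluorescence readout: glutamate formed from L-leucine/α-ketoglutarate transamination drives GDH/NAD/diaphorase reduction of resazurin (Ex 540/Em 590). Human BCAT2 was first exposed 1 h at room temperature to compound, top final 100 μM in 3-fold, 10-point series; substrate reaction ran 1 h before SDS quench, in technical duplicate with DMSO max and enzyme-free min controls.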
(Resazurin is reduced to fluorescent resorufin, in cell work by metabolically active cells.)

The next assay deals with T2, hBCAT1 (Homo sapiens, UniProt P54687).
T2 sequence (P54687 1-386): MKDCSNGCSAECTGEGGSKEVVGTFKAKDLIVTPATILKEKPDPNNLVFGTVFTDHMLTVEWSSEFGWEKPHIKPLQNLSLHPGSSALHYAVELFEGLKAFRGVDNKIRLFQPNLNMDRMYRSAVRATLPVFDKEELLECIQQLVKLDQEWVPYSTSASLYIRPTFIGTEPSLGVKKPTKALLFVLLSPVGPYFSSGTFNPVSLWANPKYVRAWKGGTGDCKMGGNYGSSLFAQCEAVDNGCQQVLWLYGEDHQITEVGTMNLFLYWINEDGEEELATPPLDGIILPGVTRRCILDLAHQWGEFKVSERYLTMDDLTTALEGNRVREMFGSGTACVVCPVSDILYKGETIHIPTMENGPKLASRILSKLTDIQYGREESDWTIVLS
Description: BCAT1 in vitro enzyme inhibition assay (resazurin/diaphorase-coupled fluorescence). It is filed as biochemical. In short, it runs like this:
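Human BCAT1 activity read by resazurin/diaphorase-coupled fluorescence. Compounds added from 50× DMSO stocks at 1:50, giving 10-point 3-fold titrations from 100 μM top final concentration. Run in technical duplicate; repeat tests averaged.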

Assay [2] concerns the target T1, BCAT2. Description: BCAT2 in vitro cell inhibition using engineered A549 cells (KMV cell assay, 13C6-KMV by LC-MS/MS). The assay is classed as cell-based. Set-up: The result was an engineered A549 cell line that expressed endogenous BCAT2; endogenous in cells; host or cells: A549 cells with MUT and BCAT1 knocked out by CRISPR/CAS9; key to BCAT2 Cell Inhibition: A: less than or equal to 0.100 μM; B: greater than 0.100 and less than or equal to 0.500 μM; C: greater than 0.500 and less than or equal to 1.000 μM; d: greater than 1.000 μM; E: no fit.

Consider `CN1C[C@@H](NC(=O)c2ncc(Cl)s2)C[C@@H](n2c(-c3ccccc3F)nc3cnc(-c4nc[nH]n4)cc32)C1` (single isomer, unassigned) [Example 133], for which the IC50 against BCAT2 [1] is 100 to 500 nM; on hBCAT1, 1000 to 5000 nM; against BCAT2 [2], more than 1000 nM.

With `CN1C[C@H](NC(=O)c2ncc(Cl)s2)C[C@H](n2c(-c3ccccc3F)nc3cnc(-c4nc[nH]n4)cc32)C1` (single isomer, unassigned) [Example 134], the IC50 against BCAT2 [1] is not above 100 nM; against hBCAT1 it was less than 500 nM; against BCAT2 [2] it was not above 100 nM.

As for `CC(C)Cc1nc2cnc(-c3nc[nH]n3)cc2n1[C@@H]1C[C@H](NC(=O)c2ncc(Cl)s2)CN(C)C1` (single isomer, unassigned) [Example 135], the IC50 at BCAT2 [1] is more than 1000 nM; against hBCAT1 it was more than 5000 nM. The “BCAT2 Cell Inhibition” value at BCAT2 [2] is recorded as “E”.

For the compound `CC(C)Cc1nc2cnc(-c3nc[nH]n3)cc2n1[C@H]1C[C@@H](NC(=O)c2ncc(Cl)s2)CN(C)C1` (single isomer, unassigned) [Example 136], the values for the IC50 on BCAT2 [1], at hBCAT1 and against BCAT2 [2] were not above 100 nM, less than 500 nM and not above 100 nM, respectively.

Regarding `O=C(NC1COCC(n2c(-c3ncccc3F)nc3cnc(-n4nccn4)cc32)C1)c1ncc(C(F)F)s1` (single isomer, unassigned) [Example 138, 5-(difluoromethyl)-N-(5-(2-(3-fluoropyridin-2-yl)-6-(2H-1,2,3-triazol-2-yl)-1H-imidazo[4,5-c]pyridin-1-yl)tetrahydro-2H-pyran-3-yl)thiazole-2-carboxamide], the IC50 against BCAT2 [1] was not above 100 nM; against hBCAT1, 500 to 1000 nM; against BCAT2 [2] it was 100 to 500 nM.

As for `O=C(NC1COCC(n2c(-c3ncccc3F)nc3cnc(-n4nccn4)cc32)C1)c1ncc(C(F)F)s1` (single isomer, unassigned) [Example 139, 5-(difluoromethyl)-N-(5-(2-(3-fluoropyridin-2-yl)-6-(2H-1,2,3-triazol-2-yl)-1H-imidazo[4,5-c]pyridin-1-yl)tetrahydro-2H-pyran-3-yl)thiazole-2-carboxamide], the IC50 on BCAT2 [1] is more than 1000 nM; against hBCAT1, more than 5000 nM. Besides, the “BCAT2 Cell Inhibition” value on BCAT2 [2] was “E”.

`CC(C)Cc1nc2cnc(-n3nccn3)cc2n1[C@@H]1COC[C@H](NC(=O)c2ccc(Cl)s2)C1` (single isomer, unassigned) [Example 141]: the IC50 against BCAT2 [1] is not above 100 nM; against hBCAT1, less than 500 nM; at BCAT2 [2], not above 100 nM.

As to `O=C(NC1COCC(n2c(-c3ccccc3F)nc3cnc(-n4nccn4)cc32)C1)c1ncc(C(F)F)s1` (single isomer, unassigned) [Example 142, 5-(difluoromethyl)-N-(5-(2-(2-fluorophenyl)-6-(2H-1,2,3-triazol-2-yl)-1H-imidazo[4,5-c]pyridin-1-yl)tetrahydro-2H-pyran-3-yl)thiazole-2-carboxamide], the IC50 was not above 100 nM against BCAT2 [1], less than 500 nM against hBCAT1 and not above 100 nM against BCAT2 [2].

On to `O=C(NC1COCC(n2c(-c3ccccc3F)nc3cnc(-n4nccn4)cc32)C1)c1ncc(C(F)F)s1` (single isomer, unassigned) [Example 143, 5-(difluoromethyl)-N-(5-(2-(2-fluorophenyl)-6-(2H-1,2,3-triazol-2-yl)-1H-imidazo[4,5-c]pyridin-1-yl)tetrahydro-2H-pyran-3-yl)thiazole-2-carboxamide], for which the IC50 on BCAT2 [1] was 100 to 500 nM; against hBCAT1, more than 5000 nM; on BCAT2 [2], 100 to 500 nM.

With `O=C(N[C@H]1CCC[C@@H](n2c(C3COCCO3)nc3cnc(-c4nc[nH]n4)cc32)C1)c1ncc(Cl)s1` (single isomer, unassigned) [Example 176], the IC50 against BCAT2 [1] is 100 to 500 nM; against hBCAT1, 1000 to 5000 nM; at BCAT2 [2], more than 1000 nM.

Take `CC(C)C(O)c1nc2cnc(-c3nc[nH]n3)cc2n1[C@@H]1CCC[C@H](NC(=O)c2ncc(Cl)s2)C1` (single isomer, unassigned) [Example 183]: the IC50 against BCAT2 [1] was not above 100 nM; against hBCAT1, less than 500 nM; on BCAT2 [2], 100 to 500 nM.

As to `CC(C)Cc1nc2cnc(-c3ccccn3)cc2n1[C@@H]1C[C@@H](O)C[C@H](NC(=O)c2ncc(Cl)s2)C1` (single isomer, unassigned) [Example 214], the IC50 at BCAT2 [1] is not above 100 nM; against hBCAT1, less than 500 nM; at BCAT2 [2], not above 100 nM.

As to `CO[C@H]1C[C@H](NC(=O)c2ncc(Cl)s2)C[C@H](n2c(-c3ccccc3F)nc3cnc(-c4nc[nH]n4)cc32)C1` (single isomer, unassigned) [Example 218], the results for the IC50 against BCAT2 [1], against hBCAT1 and against BCAT2 [2] were not above 100 nM, less than 500 nM and not above 100 nM, respectively.

As to `CC1(O)[C@@H](NC(=O)c2ncc(Cl)s2)CCC[C@H]1n1c(-c2ccccc2F)nc2cnc(-c3nc[nH]n3)cc21` (single isomer, unassigned) [Example 233], the IC50 against BCAT2 [1] was not above 100 nM; on hBCAT1 it was less than 500 nM; against BCAT2 [2] it was 100 to 500 nM.

As for `O=C(N[C@H]1C[C@H](O)C[C@@H](n2c(-c3ccccc3F)nc3cnc(-c4ccccn4)cc32)C1)c1ncc(Cl)s1` (single isomer, unassigned) [Example 252], the IC50 on BCAT2 [1] is not above 100 nM; on hBCAT1 it was less than 500 nM; on BCAT2 [2], not above 100 nM.

Turning to `O=C(N[C@H]1C[C@H](O)C[C@@H](n2c(-c3ccccc3F)nc3cnc(-c4ccn[nH]4)cc32)C1)c1ncc(Cl)s1` (single isomer, unassigned) [Example 258], the IC50 against BCAT2 [1] is not above 100 nM; against hBCAT1 it was less than 500 nM; against BCAT2 [2] it was not above 100 nM.

Regarding `CNC(=O)c1cc2nc(CC(C)C)n([C@@H]3CCC[C@H](NC(=O)c4ncc(Cl)s4)[C@H]3O)c2cn1` (single isomer, unassigned) [Example 280], the values for the concentration for half-maximal inhibition (IC50) against BCAT2 [1], against hBCAT1 and against BCAT2 [2] were not above 100 nM, 1000 to 5000 nM and 500 to 1000 nM, respectively.

For the compound `CC(C)Cc1nc2cnc(-n3nccn3)cc2n1[C@@H]1C[C@@H](O)C[C@H](NC(=O)c2ccc(Cl)s2)C1` (single isomer, unassigned) [Example 395], the IC50 against BCAT2 [1] was not above 100 nM; on hBCAT1, less than 500 nM; against BCAT2 [2], not above 100 nM.

Consider `CO[C@H]1C[C@H](NC(=O)c2ncc(Cl)s2)C[C@H](n2c(CC(C)C)nc3cnc(-c4ncc(C)o4)cc32)C1` (single isomer, unassigned) [Example 427], for which the IC50 at BCAT2 [1] was not above 100 nM; against hBCAT1 it was 500 to 1000 nM; on BCAT2 [2] it was 100 to 500 nM.

As to `CO[C@H]1C[C@H](NC(=O)c2ccc(Cl)s2)C[C@H](n2c(CC(C)C)nc3cnc(-c4ncccn4)cc32)C1` (single isomer, unassigned) [Example 437], the IC50 on BCAT2 [1] is not above 100 nM; at hBCAT1, less than 500 nM; on BCAT2 [2], not above 100 nM.

On to `CO[C@@H]1C[C@H](NC(=O)c2ncc(Cl)s2)C[C@H](n2c(CC(C)C)nc3cnc(-n4nccn4)cc32)C1` (single isomer, unassigned) [Example 439], for which the IC50 at BCAT2 [1] was not above 100 nM; at hBCAT1 it was less than 500 nM; on BCAT2 [2] it was not above 100 nM.

With `CO[C@H]1C[C@H](NC(=O)c2ncc(Cl)s2)C[C@H](n2c(CC(C)(C)C)nc3cnc(-c4ccccn4)cc32)C1` (single isomer, unassigned) [Example 442], the IC50 on BCAT2 [1] was not above 100 nM; at hBCAT1 it was 1000 to 5000 nM; on BCAT2 [2] it was 100 to 500 nM.

As to `N#CC1CC(NC(=O)c2ncc(Cl)s2)CC(n2c(-c3ccccc3F)nc3cnc(-c4nc[nH]n4)cc32)C1` (single isomer, unassigned) [Example 451, 5-chloro-N-(3-cyano-5-(2-(2-fluorophenyl)-6-(1H-1,2,4-triazol-3-yl)-1H-imidazo[4,5-c]pyridin-1-yl)cyclohexyl)thiazole-2-carboxamide], the values for the IC50 at BCAT2 [1], against hBCAT1 and on BCAT2 [2] were not above 100 nM, less than 500 nM and 100 to 500 nM, respectively.

(Values after US20260159512A1, “BCAT2 INHIBITORS” (AGIOS PHARMACEUTICALS, INC., priority 2021, published 2026).)
